COC(C)(C)C [2-methoxy-2-methylpropane]
Liquid, Brillouin light scattering
Details | speed of sound [m/s]
388.22 K, 1000 kPa | 646.4
388.24 K, 2500 kPa | 670.7
388.24 K, 10000 kPa | 768.1
388.25 K, 8500 kPa | 751.1
393.11 K, 5500 kPa | 691.8
393.13 K, 1000 kPa | 619
393.13 K, 4000 kPa | 669.1
393.13 K, 8500 kPa | 736.3
393.16 K, 2500 kPa | 643.2
393.22 K, 7000 kPa | 714.5
393.22 K, 10000 kPa | 753.4
398.1 K, 5500 kPa | 671.4
398.11 K, 1000 kPa | 594.9
398.18 K, 2500 kPa | 624.4
398.18 K, 4000 kPa | 647.1
398.2 K, 8500 kPa | 715.9
398.24 K, 10000 kPa | 733.5
398.25 K, 7000 kPa | 692.8
403.07 K, 7000 kPa | 672.1
403.11 K, 2500 kPa | 602.6
403.12 K, 1000 kPa | 574.7
403.12 K, 4000 kPa | 627.2
403.14 K, 5500 kPa | 649.2
403.14 K, 10000 kPa | 716.1
403.16 K, 8500 kPa | 697.5
408.09 K, 7000 kPa | 657.5
408.16 K, 4000 kPa | 605.6
408.19 K, 5500 kPa | 631.8
408.21 K, 8500 kPa | 679.5
408.23 K, 2500 kPa | 576.4
408.24 K, 10000 kPa | 697.8
413.06 K, 10000 kPa | 682.3
413.08 K, 4000 kPa | 585.4
413.14 K, 8500 kPa | 661.5
413.16 K, 5500 kPa | 612.9
413.19 K, 2500 kPa | 557.9
413.24 K, 7000 kPa | 638.1
418.07 K, 4000 kPa | 565.2
418.07 K, 7000 kPa | 617.5
418.08 K, 10000 kPa | 661.5
418.11 K, 8500 kPa | 639.1
418.19 K, 2500 kPa | 535.7
418.23 K, 5500 kPa | 588.6
423.05 K, 7000 kPa | 595.1
423.06 K, 2500 kPa | 511.7
423.06 K, 4000 kPa | 541.9
423.11 K, 8500 kPa | 624.1
423.12 K, 10000 kPa | 647.8
423.19 K, 5500 kPa | 571.4
428.11 K, 2500 kPa | 485.7
428.14 K, 5500 kPa | 549.7
428.15 K, 7000 kPa | 575.1
428.18 K, 4000 kPa | 520.9
428.19 K, 8500 kPa | 605.5
428.2 K, 10000 kPa | 625.5
433.05 K, 2500 kPa | 463.5
433.05 K, 7000 kPa | 560.1
433.08 K, 10000 kPa | 610.8
433.18 K, 4000 kPa | 498.5
433.22 K, 5500 kPa | 530.9
433.22 K, 8500 kPa | 586.5
438.11 K, 2500 kPa | 443
438.13 K, 7000 kPa | 540.4
438.13 K, 10000 kPa | 590.9
438.14 K, 5500 kPa | 507.9
438.16 K, 8500 kPa | 569
438.24 K, 4000 kPa | 477.2
443.06 K, 4000 kPa | 454.3
443.08 K, 5500 kPa | 487.7
443.12 K, 10000 kPa | 575
443.14 K, 8500 kPa | 548.7
443.18 K, 2500 kPa | 418.1
443.23 K, 7000 kPa | 519.9
448.06 K, 2500 kPa | 394.3
448.07 K, 5500 kPa | 467.5
448.16 K, 4000 kPa | 435.5
448.22 K, 7000 kPa | 500.2
448.23 K, 8500 kPa | 529.7
448.23 K, 10000 kPa | 557.1
453.07 K, 5500 kPa | 448.8
453.18 K, 4000 kPa | 411.5
453.18 K, 10000 kPa | 544
453.2 K, 2500 kPa | 372.4
453.21 K, 8500 kPa | 515.2
453.24 K, 7000 kPa | 483.8
458.06 K, 4000 kPa | 389.5
458.08 K, 7000 kPa | 464.6
458.12 K, 10000 kPa | 524.8
458.18 K, 2500 kPa | 350.8
458.22 K, 8500 kPa | 497.9
458.24 K, 5500 kPa | 426.1
463.1 K, 10000 kPa | 507.9
463.13 K, 2500 kPa | 326.7
463.14 K, 8500 kPa | 480.9
463.16 K, 5500 kPa | 409.6
463.23 K, 4000 kPa | 368.2
463.25 K, 7000 kPa | 445.2
468.06 K, 7000 kPa | 427.3
468.1 K, 10000 kPa | 491.9
468.15 K, 8500 kPa | 459.5
468.19 K, 4000 kPa | 347.2
468.22 K, 5500 kPa | 389.7
473.07 K, 4000 kPa | 324.5
473.11 K, 10000 kPa | 479
473.12 K, 8500 kPa | 443.1
473.15 K, 7000 kPa | 408.5
473.22 K, 5500 kPa | 366

Details | speed of sound [m/s]
393.16 K, Liquid, Brillouin Light Scattering | 609.1
398.07 K, Gas, Brillouin light scattering | 170
398.11 K, Liquid, Brillouin Light Scattering | 580.1
403.24 K, Liquid, Brillouin Light Scattering | 558
408.22 K, Gas, Brillouin light scattering | 167.8
408.23 K, Liquid, Brillouin Light Scattering | 537.6
413.2 K, Liquid, Brillouin Light Scattering | 515.8
418.16 K, Gas, Brillouin light scattering | 164.7
418.24 K, Liquid, Brillouin Light Scattering | 494.4
423.15 K, Liquid, Brillouin Light Scattering | 476
428.21 K, Gas, Brillouin light scattering | 161.2
428.24 K, Liquid, Brillouin Light Scattering | 453.8
433.05 K, Liquid, Brillouin Light Scattering | 430.3
438.17 K, Gas, Brillouin light scattering | 155.3
438.19 K, Liquid, Brillouin Light Scattering | 405.8
443.09 K, Liquid, Brillouin Light Scattering | 387.3
448.13 K, Gas, Brillouin light scattering | 148.4
448.23 K, Liquid, Brillouin Light Scattering | 360.3
453.1 K, Liquid, Brillouin Light Scattering | 339.5
458.19 K, Liquid, Brillouin Light Scattering | 313.6
458.29 K, Gas, Brillouin light scattering | 139.8
463.17 K, Gas, Brillouin light scattering | 135.7
463.23 K, Liquid, Brillouin Light Scattering | 287.1
468.18 K, Liquid, Brillouin Light Scattering | 265
468.26 K, Gas, Brillouin light scattering | 130.6
473.15 K, Gas, Brillouin light scattering | 124.5
473.17 K, Liquid, Brillouin Light Scattering | 236.5
478.08 K, Gas, Brillouin light scattering | 119
478.08 K, Liquid, Brillouin Light Scattering | 206.1
483.2 K, Liquid, Brillouin Light Scattering | 177.7
483.29 K, Gas, Brillouin light scattering | 111.8
488.11 K, Liquid, Brillouin Light Scattering | 142.8
488.15 K, Gas, Brillouin light scattering | 104.9
493.06 K, Liquid, Brillouin Light Scattering | 103.7
493.15 K, Gas, Brillouin light scattering | 96.9
